Results as given in US20190100555A1, “EYE-CARE PEPTIDE, ITS COMPOSITION AND METHOD OF USING THE SAME” (PRO SUNFUN BIOTECH RESEARCH AND DEVELOPMENT CO., LTD., priority 2017, published 2019).
Peptide text beside a SMILES is read from it.

Test system: HCEC cells
Test: MTT assay (cell viability)
Assay type: cell-based, Human
Protocol: Human corneal epithelial cell line, HCEC, was cultured in complete KSF containing keratinocyte-serum free medium, 5 ng/ml human recombinant EGF, 0.05 mg/ml bovine pituitary extract, 0.005 mg/ml insulin and 500 ng/ml hydrocortisone under 5% CO2 at 37° C.
Cells (2×10^4) in 1 ml complete KSF were seeded in 12-well plates with or without Peptide NO. 12. Seventy microliters of 5 mg/ml 3-(4,5-dimethyl-2-thiazolyl)-2,5-diphenyl-2H-tetrazolium bromide solution (MTT; Sigma) was added to each well for the indicated times and incubated at 37° C. for 3 hours, after which 700 μl 10% SDS in 0.01 N HCl was added to dissolve the MTT formazan crystals. The resultant optical density was measured spectrophotometrically at dual wavelengths, 550 and 630 nm.

SMILES: CC(C)C[C@H](NC(=O)[C@@H]1CCCN1C(=O)[C@H](CC(N)=O)NC(=O)[C@@H](N)CCCNC(=N)N)C(=O)N[C@@H](CCC(=O)O)C(=O)N[C@@H](CCC(=O)O)C(=O)N[C@H](C(=O)O)[C@@H](C)O [Peptide NO. 12, ArgAsnProLeuGluGluThr] (H-RNPLEET-OH)
- viability of HCEC cells (24 hours, 5, 10, 25 and 50 μg/ml): did not significantly affect viability
- viability of HCEC cells (48 hours, 5, 10, 25 and 50 μg/ml): did not significantly affect viability
